Experimental data published in ChEMBL document CHEMBL4507289, “Data for DCP probe GSM1” (2021).
The source made the active and inactive calls. No cut-off for these calls is given here.

Columns and labels:
[1] = target: Serine/threonine-protein kinase 38 (Homo sapiens) (UniProt Q15208); settings: Compound concentration 1000.0 nM
[2] = target: Serine/threonine-protein kinase Sgk2 (Homo sapiens) (UniProt Q9HBY8); settings: Compound concentration 1000.0 nM
[3] = target: MAP kinase-activated protein kinase 5 (Homo sapiens) (UniProt Q8IW41); settings: Compound concentration 1000.0 nM
[4] = target: Cyclin-dependent kinase 4 (Homo sapiens) (UniProt P11802); settings: Compound concentration 1000.0 nM
[5] = target: Calcium/calmodulin-dependent protein kinase type 1D (Homo sapiens) (UniProt Q8IU85); settings: Compound concentration 1000.0 nM
[6] = target: Interleukin-1 receptor-associated kinase 1 (Homo sapiens) (UniProt P51617); settings: Compound concentration 1000.0 nM
[7] = target: Serine/threonine-protein kinase Nek3 (Homo sapiens) (UniProt P51956); settings: Compound concentration 1000.0 nM
[8] = target: Muscarinic acetylcholine receptor M3 (Homo sapiens) (UniProt P20309); settings: Compound concentration 10.0 uM
[9] = target: Serine/threonine-protein kinase PLK3 (Homo sapiens) (UniProt Q9H4B4); settings: Compound concentration 1000.0 nM
[10] = target: Homeodomain-interacting protein kinase 1 (Homo sapiens) (UniProt Q86Z02); settings: Compound concentration 1000.0 nM
[11] = target: Tyrosine-protein kinase receptor UFO (Homo sapiens) (UniProt P30530); settings: Compound concentration 1000.0 nM
[12] = tested on: Phosphatidylinositol 4,5-bisphosphate 3-kinase catalytic subunit alpha isoform (Homo sapiens), P42336 [E545K]; settings: Compound concentration 1000.0 nM
[13] = target: MAP kinase-activated protein kinase 2 (Homo sapiens) (UniProt P49137); settings: Compound concentration 1000.0 nM
[14] = target: Serine/threonine-protein kinase pim-1 (Homo sapiens) (UniProt P11309); settings: Compound concentration 1000.0 nM
[15] = target: Phosphatidylinositol 4,5-bisphosphate 3-kinase catalytic subunit delta isoform (Homo sapiens) (UniProt O00329); settings: Compound concentration 1000.0 nM
[16] = target: Tyrosine-protein kinase Tec (Homo sapiens) (UniProt P42680); settings: Compound concentration 1000.0 nM
[17] = tested on: Receptor-type tyrosine-protein kinase FLT3 (Homo sapiens), P36888 [R834Q]; settings: Compound concentration 1000.0 nM
[18] = tested on: Tyrosine-protein kinase ABL1 (Homo sapiens), P00519 [T315I]; settings: Compound concentration 1000.0 nM
[19] = target: Mitogen-activated protein kinase 6 (Homo sapiens) (UniProt Q16659); settings: Compound concentration 1000.0 nM
[20] = target: D(1A) dopamine receptor (Homo sapiens) (UniProt P21728); settings: Compound concentration 10.0 uM
[21] = target: cGMP-dependent protein kinase 2 (Homo sapiens) (UniProt Q13237); settings: Compound concentration 1000.0 nM
[22] = target: Calcium/calmodulin-dependent protein kinase type II subunit alpha (Homo sapiens) (UniProt Q9UQM7); settings: Compound concentration 1000.0 nM
[23] = target: Mitogen-activated protein kinase kinase kinase kinase 3 (Homo sapiens) (UniProt Q8IVH8); settings: Compound concentration 1000.0 nM
[24] = target: T1, Amyloid-beta precursor protein (Homo sapiens, UniProt P05067); experiment: Aβ42 inhibition assay
[25] = target: Fibroblast growth factor receptor 4 (Homo sapiens) (UniProt P22455); settings: Compound concentration 1000.0 nM
[26] = target: Cyclin-dependent kinase 9 (Homo sapiens) (UniProt P50750); settings: Compound concentration 1000.0 nM
[27] = target: RAC-beta serine/threonine-protein kinase (Homo sapiens) (UniProt P31751); settings: Compound concentration 1000.0 nM
[28] = target: Microtubule-associated serine/threonine-protein kinase 1 (Homo sapiens) (UniProt Q9Y2H9); settings: Compound concentration 1000.0 nM
[29] = target: Ankyrin repeat and protein kinase domain-containing protein 1 (Homo sapiens) (UniProt Q8NFD2); settings: Compound concentration 1000.0 nM
[30] = target: Serine/threonine-protein kinase haspin (Homo sapiens) (UniProt Q8TF76); settings: Compound concentration 1000.0 nM
[31] = target: Mitogen-activated protein kinase kinase kinase 2 (Homo sapiens) (UniProt Q9Y2U5); settings: Compound concentration 1000.0 nM
[32] = target: Phosphatidylinositol 3-kinase C2 domain-containing subunit gamma (Homo sapiens) (UniProt O75747); settings: Compound concentration 1000.0 nM
[33] = target: Platelet-derived growth factor receptor alpha (Homo sapiens) (UniProt P16234); settings: Compound concentration 1000.0 nM
[34] = target: ALK tyrosine kinase receptor (Homo sapiens) (UniProt Q9UM73); settings: Compound concentration 1000.0 nM
[35] = target: Ephrin type-B receptor 3 (Homo sapiens) (UniProt P54753); settings: Compound concentration 1000.0 nM
[36] = target: Serine/threonine-protein kinase LATS2 (Homo sapiens) (UniProt Q9NRM7); settings: Compound concentration 1000.0 nM
[37] = tested on: ALK tyrosine kinase receptor (Homo sapiens), Q9UM73 [L1196M]; settings: Compound concentration 1000.0 nM
[38] = target: Mitogen-activated protein kinase kinase kinase 3 (Homo sapiens) (UniProt Q99759); settings: Compound concentration 1000.0 nM
[39] = tested on: Receptor-type tyrosine-protein kinase FLT3 (Homo sapiens), P36888 [D835H]; settings: Compound concentration 1000.0 nM
[40] = target: Serine/threonine-protein kinase ULK3 (Homo sapiens) (UniProt Q6PHR2); settings: Compound concentration 1000.0 nM
[41] = target: T1, Amyloid-beta precursor protein; experiment: Aβ40 inhibition assay
[42] = target: Serine/threonine-protein kinase PAK 2 (Homo sapiens) (UniProt Q13177); settings: Compound concentration 1000.0 nM
[43] = target: Receptor tyrosine-protein kinase erbB-2 (Homo sapiens) (UniProt P04626); settings: Compound concentration 1000.0 nM
[44] = target: Serine/threonine-protein kinase 16 (Homo sapiens) (UniProt O75716); settings: Compound concentration 1000.0 nM
[45] = target: Cyclin-G-associated kinase (Homo sapiens) (UniProt O14976); settings: Compound concentration 1000.0 nM
[46] = target: Histamine H3 receptor (Homo sapiens) (UniProt Q9Y5N1); settings: Compound concentration 10.0 uM

T1 sequence (P05067 whole entry): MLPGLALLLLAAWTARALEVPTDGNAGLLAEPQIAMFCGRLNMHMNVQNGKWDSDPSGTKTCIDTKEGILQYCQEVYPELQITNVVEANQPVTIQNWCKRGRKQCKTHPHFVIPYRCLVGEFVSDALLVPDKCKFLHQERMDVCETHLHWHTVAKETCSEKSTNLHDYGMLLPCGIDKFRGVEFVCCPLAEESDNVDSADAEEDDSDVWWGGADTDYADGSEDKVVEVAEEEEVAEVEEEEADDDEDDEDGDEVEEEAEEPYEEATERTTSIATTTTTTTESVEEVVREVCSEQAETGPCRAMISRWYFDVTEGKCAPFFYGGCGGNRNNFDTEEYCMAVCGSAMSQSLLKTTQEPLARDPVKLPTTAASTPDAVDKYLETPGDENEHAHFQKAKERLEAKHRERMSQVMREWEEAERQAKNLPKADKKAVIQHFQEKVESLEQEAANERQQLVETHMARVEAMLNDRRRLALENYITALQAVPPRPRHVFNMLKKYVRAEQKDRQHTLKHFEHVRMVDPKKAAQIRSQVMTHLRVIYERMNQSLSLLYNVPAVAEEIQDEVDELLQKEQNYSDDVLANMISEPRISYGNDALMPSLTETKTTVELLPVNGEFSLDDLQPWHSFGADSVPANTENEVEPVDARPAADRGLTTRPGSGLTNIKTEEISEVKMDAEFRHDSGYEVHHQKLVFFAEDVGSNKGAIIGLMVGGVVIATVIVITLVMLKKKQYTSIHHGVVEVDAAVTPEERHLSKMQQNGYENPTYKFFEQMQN
Sequence of Serine/threonine-protein kinase 38 (Homo sapiens) (Q15208 2-465 limits assumed): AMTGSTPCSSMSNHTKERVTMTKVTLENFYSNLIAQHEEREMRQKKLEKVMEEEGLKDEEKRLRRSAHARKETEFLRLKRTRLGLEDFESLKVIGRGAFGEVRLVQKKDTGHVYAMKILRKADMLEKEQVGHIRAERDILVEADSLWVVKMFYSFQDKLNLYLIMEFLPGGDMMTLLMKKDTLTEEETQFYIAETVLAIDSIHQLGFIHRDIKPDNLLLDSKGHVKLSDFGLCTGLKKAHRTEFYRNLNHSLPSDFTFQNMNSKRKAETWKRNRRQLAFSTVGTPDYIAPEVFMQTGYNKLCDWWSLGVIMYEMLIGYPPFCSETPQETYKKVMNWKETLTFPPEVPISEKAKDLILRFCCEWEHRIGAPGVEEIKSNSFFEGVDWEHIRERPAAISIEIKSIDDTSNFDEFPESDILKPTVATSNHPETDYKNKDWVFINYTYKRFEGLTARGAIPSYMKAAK
Sequence of Serine/threonine-protein kinase PLK3 (Homo sapiens) (Q9H4B4 whole entry, looked up): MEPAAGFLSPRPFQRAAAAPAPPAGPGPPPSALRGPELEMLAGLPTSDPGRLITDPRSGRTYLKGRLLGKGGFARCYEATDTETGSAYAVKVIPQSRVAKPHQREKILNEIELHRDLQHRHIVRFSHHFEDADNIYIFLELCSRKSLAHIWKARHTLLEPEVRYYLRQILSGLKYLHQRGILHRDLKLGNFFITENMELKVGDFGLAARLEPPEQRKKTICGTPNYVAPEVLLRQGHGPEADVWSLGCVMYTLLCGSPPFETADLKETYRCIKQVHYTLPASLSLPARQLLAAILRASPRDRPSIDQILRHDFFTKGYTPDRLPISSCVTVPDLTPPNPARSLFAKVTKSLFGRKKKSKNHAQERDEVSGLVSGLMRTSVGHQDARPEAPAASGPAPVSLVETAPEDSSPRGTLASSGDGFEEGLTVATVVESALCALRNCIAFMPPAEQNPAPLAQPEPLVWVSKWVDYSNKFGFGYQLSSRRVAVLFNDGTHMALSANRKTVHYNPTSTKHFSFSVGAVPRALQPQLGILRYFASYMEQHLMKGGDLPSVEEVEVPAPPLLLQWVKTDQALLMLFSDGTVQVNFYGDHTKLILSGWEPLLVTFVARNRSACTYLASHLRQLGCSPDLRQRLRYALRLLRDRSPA
Sequence of Phosphatidylinositol 4,5-bisphosphate 3-kinase catalytic subunit alpha isoform (Homo sapiens), P42336 [E545K] (P42336 whole entry E545K, canonical isoform): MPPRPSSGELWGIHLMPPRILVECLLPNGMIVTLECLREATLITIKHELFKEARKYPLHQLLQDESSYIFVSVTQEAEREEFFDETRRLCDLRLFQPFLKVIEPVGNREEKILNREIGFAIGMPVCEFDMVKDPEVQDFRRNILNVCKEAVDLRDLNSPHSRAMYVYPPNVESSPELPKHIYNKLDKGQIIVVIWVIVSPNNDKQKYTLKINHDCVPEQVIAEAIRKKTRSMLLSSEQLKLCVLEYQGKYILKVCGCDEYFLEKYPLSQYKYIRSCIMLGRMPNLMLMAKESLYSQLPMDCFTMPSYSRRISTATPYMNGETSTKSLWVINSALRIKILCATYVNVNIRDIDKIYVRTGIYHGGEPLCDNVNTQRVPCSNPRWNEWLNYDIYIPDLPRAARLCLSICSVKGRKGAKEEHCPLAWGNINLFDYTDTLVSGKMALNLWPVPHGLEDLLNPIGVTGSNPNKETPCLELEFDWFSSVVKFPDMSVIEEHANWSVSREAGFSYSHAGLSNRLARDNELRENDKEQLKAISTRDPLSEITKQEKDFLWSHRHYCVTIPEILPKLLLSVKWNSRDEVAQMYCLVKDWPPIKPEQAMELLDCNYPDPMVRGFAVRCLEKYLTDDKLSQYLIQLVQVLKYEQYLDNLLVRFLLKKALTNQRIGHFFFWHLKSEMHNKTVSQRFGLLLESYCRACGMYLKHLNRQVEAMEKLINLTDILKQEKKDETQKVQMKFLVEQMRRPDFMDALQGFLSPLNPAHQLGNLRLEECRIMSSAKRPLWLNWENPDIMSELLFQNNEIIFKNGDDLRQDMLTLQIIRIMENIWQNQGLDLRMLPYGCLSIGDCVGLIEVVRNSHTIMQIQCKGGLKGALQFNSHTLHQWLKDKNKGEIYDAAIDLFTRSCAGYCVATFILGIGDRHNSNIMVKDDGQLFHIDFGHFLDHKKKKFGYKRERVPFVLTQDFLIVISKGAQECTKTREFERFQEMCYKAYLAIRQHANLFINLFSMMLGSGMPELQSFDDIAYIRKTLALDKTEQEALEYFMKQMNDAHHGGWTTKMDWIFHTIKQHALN
Sequence of Ankyrin repeat and protein kinase domain-containing protein 1 (Homo sapiens) (Q8NFD2 whole entry, the tested form may be a part): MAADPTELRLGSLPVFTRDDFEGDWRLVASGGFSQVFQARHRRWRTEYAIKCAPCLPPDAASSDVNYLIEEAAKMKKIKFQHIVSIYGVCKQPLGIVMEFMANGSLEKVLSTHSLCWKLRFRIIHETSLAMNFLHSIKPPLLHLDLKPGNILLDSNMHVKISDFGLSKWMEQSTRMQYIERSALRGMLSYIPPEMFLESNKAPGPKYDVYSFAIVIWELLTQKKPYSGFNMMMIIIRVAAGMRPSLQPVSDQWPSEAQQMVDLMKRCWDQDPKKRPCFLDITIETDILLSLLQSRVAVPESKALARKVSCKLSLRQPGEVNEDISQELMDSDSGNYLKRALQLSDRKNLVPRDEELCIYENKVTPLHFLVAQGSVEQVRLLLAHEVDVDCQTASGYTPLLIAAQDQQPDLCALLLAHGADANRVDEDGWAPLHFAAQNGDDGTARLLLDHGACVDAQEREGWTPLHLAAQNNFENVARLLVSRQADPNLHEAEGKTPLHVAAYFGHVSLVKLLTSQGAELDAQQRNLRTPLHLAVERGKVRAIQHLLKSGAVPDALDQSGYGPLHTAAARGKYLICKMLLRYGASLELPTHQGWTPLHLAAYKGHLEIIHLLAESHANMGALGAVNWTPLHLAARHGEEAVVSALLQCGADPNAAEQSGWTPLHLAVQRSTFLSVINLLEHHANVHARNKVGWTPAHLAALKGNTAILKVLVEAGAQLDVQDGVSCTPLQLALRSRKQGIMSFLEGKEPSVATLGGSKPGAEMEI
Sequence of Platelet-derived growth factor receptor alpha (Homo sapiens) (P16234 whole entry): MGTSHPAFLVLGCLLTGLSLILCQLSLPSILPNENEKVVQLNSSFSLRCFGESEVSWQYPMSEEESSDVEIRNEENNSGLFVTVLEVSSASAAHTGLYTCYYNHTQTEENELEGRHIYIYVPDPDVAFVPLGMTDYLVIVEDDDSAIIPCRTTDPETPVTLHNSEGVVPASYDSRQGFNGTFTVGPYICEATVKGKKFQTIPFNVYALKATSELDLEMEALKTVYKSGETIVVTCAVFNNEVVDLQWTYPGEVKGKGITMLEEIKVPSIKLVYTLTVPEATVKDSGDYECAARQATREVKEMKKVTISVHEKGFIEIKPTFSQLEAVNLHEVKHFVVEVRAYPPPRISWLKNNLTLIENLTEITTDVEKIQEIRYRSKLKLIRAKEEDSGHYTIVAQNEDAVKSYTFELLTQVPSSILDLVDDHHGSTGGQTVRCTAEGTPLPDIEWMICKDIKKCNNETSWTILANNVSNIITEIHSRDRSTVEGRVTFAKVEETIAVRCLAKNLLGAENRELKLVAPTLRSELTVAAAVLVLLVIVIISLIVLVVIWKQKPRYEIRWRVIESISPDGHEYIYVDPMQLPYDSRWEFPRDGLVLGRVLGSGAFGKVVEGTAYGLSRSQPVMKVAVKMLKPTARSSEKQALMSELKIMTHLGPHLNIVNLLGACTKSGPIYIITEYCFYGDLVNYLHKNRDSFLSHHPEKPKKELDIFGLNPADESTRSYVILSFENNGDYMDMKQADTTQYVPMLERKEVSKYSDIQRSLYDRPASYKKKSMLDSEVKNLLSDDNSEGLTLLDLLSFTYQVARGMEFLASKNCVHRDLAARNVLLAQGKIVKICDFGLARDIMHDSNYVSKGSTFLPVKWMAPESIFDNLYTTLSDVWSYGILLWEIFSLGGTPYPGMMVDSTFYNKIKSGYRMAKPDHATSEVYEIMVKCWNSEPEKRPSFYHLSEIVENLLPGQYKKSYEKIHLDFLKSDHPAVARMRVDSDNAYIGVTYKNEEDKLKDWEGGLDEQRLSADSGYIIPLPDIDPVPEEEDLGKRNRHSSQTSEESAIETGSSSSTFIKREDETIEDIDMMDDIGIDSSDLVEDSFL

Compound: COc1cc(-c2cn([C@H]3CCc4ccccc4N(CC(F)(F)F)C3=O)nn2)ccc1-n1ccc(C)n1
- residual activity [1]: 100%
- residual activity [2]: 100%
- residual activity [3]: 91%
- residual activity [4]: 86%
- residual activity [5]: 100%
- residual activity [6]: 100%
- residual activity [7]: 100%
- inhibition [8]: -6.94%
- residual activity [9]: 96%
- residual activity [10]: 96%
- residual activity [11]: 93%
- residual activity [12]: 84%
- residual activity [13]: 90%
- residual activity [14]: 100%
- residual activity [15]: 100%
- residual activity [16]: 100%
- residual activity [17]: 100%
- residual activity [18]: 70%
- residual activity [19]: 100%
- inhibition [20]: 3.62%
- residual activity [21]: 85%
- residual activity [22]: 85%
- residual activity [23]: 100%
- IC50 [24]: > 10 µM (not active)
- residual activity [25]: 100%
- residual activity [26]: 100%
- residual activity [27]: 93%
- residual activity [28]: 100%
- residual activity [29]: 78%
- residual activity [30]: 83%
- residual activity [31]: 100%
- residual activity [32]: 65%
- residual activity [33]: 88%
- residual activity [34]: 92%
- residual activity [35]: 100%
- residual activity [36]: 69%
- residual activity [37]: 91%
- residual activity [38]: 88%
- residual activity [39]: 100%
- residual activity [40]: 61%
- IC50 [41]: > 10 µM (not active)
- residual activity [42]: 100%
- residual activity [43]: 100%
- residual activity [44]: 100%
- residual activity [45]: 92%
- inhibition [46]: 20.9%

Compound: COc1cc(-c2cn([C@H]3CCc4c(F)cccc4N(CC(F)(F)F)C3=O)nn2)ccc1-n1cnc(C)c1
- residual activity [1]: 89%
- residual activity [2]: 95%
- residual activity [3]: 100%
- residual activity [4]: 100%
- residual activity [5]: 100%
- residual activity [6]: 100%
- residual activity [7]: 86%
- inhibition [8]: -4.42%
- residual activity [9]: 100%
- residual activity [10]: 100%
- residual activity [11]: 98%
- residual activity [12]: 70%
- residual activity [13]: 100%
- residual activity [14]: 96%
- residual activity [15]: 100%
- residual activity [16]: 100%
- residual activity [17]: 100%
- residual activity [18]: 83%
- residual activity [19]: 100%
- inhibition [20]: 5.87%
- residual activity [21]: 100%
- residual activity [22]: 100%
- residual activity [23]: 100%
- IC50 [24]: 0.031 µM (active)
- residual activity [25]: 100%
- residual activity [26]: 97%
- residual activity [27]: 93%
- residual activity [28]: 100%
- residual activity [29]: 100%
- residual activity [30]: 87%
- residual activity [31]: 94%
- residual activity [32]: 72%
- residual activity [33]: 100%
- residual activity [34]: 100%
- residual activity [35]: 100%
- residual activity [36]: 100%
- residual activity [37]: 100%
- residual activity [38]: 100%
- residual activity [39]: 98%
- residual activity [40]: 63%
- IC50 [41]: 0.131 µM (active)
- residual activity [42]: 91%
- residual activity [43]: 100%
- residual activity [44]: 100%
- residual activity [45]: 88%
- inhibition [46]: 23.3%
